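The compound was tested at five concentrations on cells cultured in 96-well plates, with a 48-hour exposure period. GI50: concentration for 50% inhibition of growth.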 Calls of active or inactive are those of the source. Rule as the data show it: active = GI50 up to about 1.1 µM and inactive = higher. Peptide text beside a SMILES is read from it. * marks the point of attachment. OSu = O=C1CCC(=O)N1O*
Key:
Test in all cases: inhibition of tumour cell growth, NCI panel, 48 h
[1] = test system: SW-620
[2] = test system: SK-MEL-2
[3] = test system: SF-268
[4] = test system: MDA-MB-435
[5] = test system: UACC-257
[6] = test system: NCI-H226
[7] = test system: HCT-116
[8] = test system: COLO 205
[9] = test system: OVCAR-8
[10] = test system: MOLT-4
[11] = test system: KM12
[12] = test system: RPMI-8226
[13] = test system: Hs-578T
[14] = test system: K562
[15] = test system: 786-0
[16] = test system: SN12C
[17] = test system: OVCAR-4
[18] = test system: HCC 2998

| Compound | GI50 [1] | GI50 [2] | GI50 [3] | GI50 [4] | GI50 [5] | GI50 [6] | GI50 [7] | GI50 [8] | GI50 [9] | GI50 [10] | GI50 [11] | GI50 [12] | GI50 [13] | GI50 [14] | GI50 [15] | GI50 [16] | GI50 [17] | GI50 [18] |
| --- | --- | --- | --- | --- | --- | --- | --- | --- | --- | --- | --- | --- | --- | --- | --- | --- | --- | --- |
| CCN(CC)CCCC(C)Nc1ccnc2cc3ccccc3cc12 (centres undefined) | 6.19 µM (inactive) | 23.9 µM (inactive) | 4.86 µM (inactive) | 7.85 µM (inactive) | 23.8 µM (inactive) | 20.9 µM (inactive) | 5.75 µM (inactive) | 3.3 µM (inactive) | 7.23 µM (inactive) | 4.09 µM (inactive) | 4.95 µM (inactive) | 13.5 µM (inactive) | 36.5 µM (inactive) | 7 µM (inactive) | 8.41 µM (inactive) | 14.2 µM (inactive) | 3.24 µM (inactive) |  |
| N=C(N)NS(=O)(=O)c1ccc(NNc2c3ccccc3nc3c(C(=O)Nc4ccc(S(=O)(=O)Nc5ncccn5)cc4)cccc23)cc1 | 37.5 µM (inactive) | 50.4 µM (inactive) | 47.2 µM (inactive) | 43.2 µM (inactive) | 66.7 µM (inactive) |  | 28.4 µM (inactive) | 40.5 µM (inactive) | 29.4 µM (inactive) | 38.9 µM (inactive) | 30.6 µM (inactive) | 33.3 µM (inactive) |  | 27.2 µM (inactive) | 31.6 µM (inactive) | 42.2 µM (inactive) | 29.2 µM (inactive) | 50.8 µM (inactive) |
| CC1=C(C(=O)OCc2ccncc2)C(C2=C(C)SCCS2)C(C(=O)OCc2ccncc2)=C(C)N1 | 25.6 µM (inactive) |  | 33 µM (inactive) | 17.8 µM (inactive) | 17.1 µM (inactive) | 18.5 µM (inactive) | 15.1 µM (inactive) | 22.2 µM (inactive) | 26.4 µM (inactive) | 15.3 µM (inactive) | 21.3 µM (inactive) |  | 10.6 µM (inactive) | 20 µM (inactive) | 28.6 µM (inactive) | 25.1 µM (inactive) | 38.3 µM (inactive) | > 10 µM (inactive) |
| O=C1C(/N=N/c2ccc(-c3nc4ccccc4o3)cc2)NC(=S)N1c1ccccc1 (centres undefined) | 32.3 µM (inactive) | > 100 µM (inactive) | > 100 µM (inactive) | 60.7 µM (inactive) | 39.1 µM (inactive) | > 100 µM (inactive) | > 100 µM (inactive) | > 100 µM (inactive) | 60.3 µM (inactive) | 34.7 µM (inactive) | > 100 µM (inactive) |  | > 100 µM (inactive) | 67.8 µM (inactive) | > 100 µM (inactive) | 0.692 µM (active) | 82 µM (inactive) | > 100 µM (inactive) |
| O=C(Nc1nnc(-c2c(Cl)c(Cl)c(Cl)c(Cl)c2-c2nc3cc(C(=O)c4ccccc4)ccc3[nH]2)o1)c1ccc(Cl)cc1 | 57 µM (inactive) | 29.6 µM (inactive) |  | 6.31 µM (inactive) | 36.8 µM (inactive) | 26.4 µM (inactive) | 36.5 µM (inactive) | 15.5 µM (inactive) | 39.2 µM (inactive) | 13.6 µM (inactive) | 43.5 µM (inactive) | 81.7 µM (inactive) |  | 7.91 µM (inactive) | 30.3 µM (inactive) | 17.9 µM (inactive) | 24.7 µM (inactive) |  |
| COc1cc(C2c3cc4c(cc3OC(N3CCOCC3)C2C)OCO4)ccc1O (centres undefined) | 6.3 µM (inactive) | 6.24 µM (inactive) | 35.2 µM (inactive) | 2.81 µM (inactive) | 40.7 µM (inactive) |  | 8.34 µM (inactive) | 25.3 µM (inactive) | 26.9 µM (inactive) | 6.25 µM (inactive) | 7.83 µM (inactive) | 4.22 µM (inactive) | 6.55 µM (inactive) | 4.35 µM (inactive) | 18.4 µM (inactive) | 40 µM (inactive) | 50.9 µM (inactive) | 14.9 µM (inactive) |
| CC(C)(C)c1cc(C2NC(=O)NC2=O)cc(C(C)(C)C)c1O (centres undefined) | 53.6 µM (inactive) | > 100 µM (inactive) | 64.6 µM (inactive) | 31 µM (inactive) |  | > 100 µM (inactive) | 27.9 µM (inactive) | > 100 µM (inactive) | 85.7 µM (inactive) | 39.5 µM (inactive) | 18.8 µM (inactive) | 66.5 µM (inactive) | 20.5 µM (inactive) | 33.9 µM (inactive) | > 10 µM (inactive) |  | > 100 µM (inactive) |  |
| COc1ccc2c(c1)[n+]([O-])c1cc(C#N)ccc1[n+]2[O-] | 4.34 µM (inactive) | 4.27 µM (inactive) | 13.3 µM (inactive) | 2.25 µM (inactive) | 3.74 µM (inactive) | 3.78 µM (inactive) | 11.1 µM (inactive) | 0.586 µM (active) | 15.4 µM (inactive) | 0.316 µM (active) | 2.38 µM (inactive) |  | 2.07 µM (inactive) | 6.76 µM (inactive) | 13.6 µM (inactive) | 3.17 µM (inactive) | 12.4 µM (inactive) |  |
| CC(=O)c1ccc2c(c1)oc(=O)n2CCN(C)C | > 100 µM (inactive) | > 100 µM (inactive) | > 100 µM (inactive) | > 100 µM (inactive) | > 100 µM (inactive) | > 100 µM (inactive) | > 100 µM (inactive) | > 100 µM (inactive) | > 100 µM (inactive) | > 100 µM (inactive) | > 100 µM (inactive) |  | 51.6 µM (inactive) |  | > 100 µM (inactive) |  |  |  |
| N#CC(NCCc1ccccc1)c1ccc(C(C#N)NCCc2ccccc2)cc1 (centres undefined) | 32.8 µM (inactive) | > 100 µM (inactive) | 69.3 µM (inactive) | 33.8 µM (inactive) | > 100 µM (inactive) | > 100 µM (inactive) | 28.8 µM (inactive) | 48 µM (inactive) | 73.6 µM (inactive) | 32.6 µM (inactive) | > 100 µM (inactive) |  | 71.8 µM (inactive) | 24.2 µM (inactive) | 72.4 µM (inactive) | 97.5 µM (inactive) | > 100 µM (inactive) | 83.9 µM (inactive) |
| CN1C2=C(CC3=C1CC(C)(C)CC3=O)C(=O)CC(C)(C)C2 | > 100 µM (inactive) |  | > 100 µM (inactive) |  |  | > 100 µM (inactive) |  |  | > 100 µM (inactive) | > 100 µM (inactive) | > 100 µM (inactive) | > 100 µM (inactive) | > 100 µM (inactive) | > 100 µM (inactive) | > 100 µM (inactive) | > 100 µM (inactive) | > 100 µM (inactive) | > 100 µM (inactive) |
| COC(=O)/C=C(/OC)[C@H](C)[C@H](/C=C/c1csc(-c2csc(C(C)C)n2)n1)OC | 0.741 µM (active) | 28 µM (inactive) | 0.647 µM (active) | 0.925 µM (active) | 0.455 µM (active) | 4.19 µM (inactive) | 0.284 µM (active) | 3.38 µM (inactive) | 0.785 µM (active) | 0.0703 µM (active) | 1.52 µM (inactive) | 0.373 µM (active) | > 57.8 µM (inactive) | 0.52 µM (active) | 7.45 µM (inactive) | 10.3 µM (inactive) | 0.416 µM (active) |  |
| O=C(Nc1nnc(-c2ccccc2)o1)C(SC(=S)N1CCCCC1)c1ccccc1 (centres undefined) | 31.8 µM (inactive) | 17.7 µM (inactive) |  | 21.3 µM (inactive) | 32.4 µM (inactive) | 25.4 µM (inactive) | 13.4 µM (inactive) | 31 µM (inactive) | 26.5 µM (inactive) | 3.53 µM (inactive) | 22.9 µM (inactive) | 16.2 µM (inactive) | 59.8 µM (inactive) | 9.55 µM (inactive) | 16.7 µM (inactive) | 10.9 µM (inactive) | 30.5 µM (inactive) |  |
| CC1=NNC(=O)C1C1C(=O)NN=C(c2c[nH]c3ccccc23)C1Br (centres undefined) | 40.6 µM (inactive) | 21.1 µM (inactive) | 32.7 µM (inactive) | 48.6 µM (inactive) | > 100 µM (inactive) | 35 µM (inactive) | 35.7 µM (inactive) | 33.8 µM (inactive) | 48.9 µM (inactive) | 25.4 µM (inactive) | 16.6 µM (inactive) | 40.7 µM (inactive) | 28 µM (inactive) | 31.7 µM (inactive) | > 100 µM (inactive) | > 100 µM (inactive) |  |  |
| Fc1ccc(-c2sc(-c3cccs3)cc2Cc2cccs2)cc1 | > 100 µM (inactive) | > 100 µM (inactive) | > 100 µM (inactive) | > 100 µM (inactive) | > 100 µM (inactive) | > 100 µM (inactive) | > 100 µM (inactive) | > 100 µM (inactive) | > 100 µM (inactive) | 31.1 µM (inactive) | > 100 µM (inactive) |  | > 100 µM (inactive) | > 100 µM (inactive) | > 100 µM (inactive) | > 100 µM (inactive) | > 100 µM (inactive) | > 100 µM (inactive) |
| C=C1C(=O)O[C@H]2C(=O)[C@H](C)CCC/C(C)=C/CC[C@@]3(C)O[C@@H]3C[C@@H]12 | 1.56 µM (inactive) | 5.26 µM (inactive) | 4.54 µM (inactive) | 1.98 µM (inactive) | 2.99 µM (inactive) | 17.7 µM (inactive) | 1.05 µM (active) | 1.58 µM (inactive) | 1.69 µM (inactive) | 1.61 µM (inactive) | 4.3 µM (inactive) | 2.25 µM (inactive) | 6.34 µM (inactive) | 2.07 µM (inactive) | 1.62 µM (inactive) | 5.53 µM (inactive) |  |  |
| NCCCCC(NC(=O)C(N)Cc1ccc(O)cc1)C(=O)NC(CCCCN)C(=O)NC(CCCCN)C(=O)ON1C(=O)CCC1=O (centres undefined) (H-YKKK-OSu; configuration not given here) | > 100 µM (inactive) | > 100 µM (inactive) |  |  | > 100 µM (inactive) | > 100 µM (inactive) | > 100 µM (inactive) | > 100 µM (inactive) | > 100 µM (inactive) | > 100 µM (inactive) | > 100 µM (inactive) | > 100 µM (inactive) | > 100 µM (inactive) | > 100 µM (inactive) | > 100 µM (inactive) | > 100 µM (inactive) |  | > 100 µM (inactive) |
